These results are taken from patent publication US6949574B2 (Bristol-Myers Squibb Company, priority 2002, dated 2005).

Like-named read-outs stand apart in the source and are kept apart here.

In one data set the target is T1, human FAAH (Homo sapiens, UniProt O00519).
T1 construct: expressed in transfected cells; host or cells: H4 cells (H4-FAAH, Geneticin-selected); crude membrane homogenates
T1 sequence (O00519 1-579): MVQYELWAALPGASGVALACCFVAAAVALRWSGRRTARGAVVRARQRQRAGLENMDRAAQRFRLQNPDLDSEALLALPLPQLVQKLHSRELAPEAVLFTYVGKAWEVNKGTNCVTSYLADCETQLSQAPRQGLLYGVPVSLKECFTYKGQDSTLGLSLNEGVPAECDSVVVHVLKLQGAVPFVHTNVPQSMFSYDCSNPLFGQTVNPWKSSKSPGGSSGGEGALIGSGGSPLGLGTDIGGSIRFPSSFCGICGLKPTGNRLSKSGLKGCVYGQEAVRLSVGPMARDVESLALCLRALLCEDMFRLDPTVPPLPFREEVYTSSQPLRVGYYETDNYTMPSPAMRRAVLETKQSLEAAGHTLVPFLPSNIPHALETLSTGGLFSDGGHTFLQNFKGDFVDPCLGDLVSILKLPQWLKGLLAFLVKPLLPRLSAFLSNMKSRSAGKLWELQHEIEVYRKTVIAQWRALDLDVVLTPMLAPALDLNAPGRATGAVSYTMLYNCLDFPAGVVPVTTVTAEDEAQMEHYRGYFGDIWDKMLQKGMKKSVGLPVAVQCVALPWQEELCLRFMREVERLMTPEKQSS
In words: FAAH activity in membrane homogenates of H4-FAAH cells, [3H]-anandamide hydrolysis. Conditions: H4-FAAH cell membranes, 10 μM anandamide, room temperature, one hour; read-out: IC50. Format: biochemical. Put shortly: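 Membranes (240 ng protein) from H4 cells expressing transfected human FAAH, incubated 1 h at room temperature in 125 mM Tris-Cl, pH 9.0, with 1.67 nM [3H]-anandamide plus 10 μM anandamide. Aqueous [3H]-ethanolamine counted after methanol/dichloroethane extraction; background set with 10 μM ATFMK. IC50 from four-parameter logistic fit.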

Data set [1] concerns thermal hyperalgesia induced by paw carrageenan. As to the kind of experiment: Carrageenan-induced thermal hyperalgesia (chronic inflammatory pain). In kind it is in vivo, rat. An excerpt:
FIG. 1 illustrates results from a rat carrageen-induced thermal hypergesia model used for measuring chronic inflammatory pain.
The following in vivo pain models below utilized Example 5. […] Paw carrageenan injection (⋄, 0:45 hr, Carr) produced strong thermal hyperalgesia as evidenced by the short escape latencies seen in vehicle treated rats (⋄, 2:15 hr, Carr) as compared to the long baseline latencies (0:00 hr). […] Data are mean+/−s.e.m. (n=8 per group). *p<0.05, **p<0.01 Tukey's HSD, compared to vehicle.

The subject of data set [2] is acute thermal pain behavior. Format: in vivo, rat. An excerpt: FIG. 2 illustrates results from a rat Hargreaves test used for measuring acute thermal pain.
Data are mean+/−s.e.m. (n=8 per group). **p<0.01 Dunnett's Test, compared to vehicle control.

Data set [3] has as its system carrageenan-induced edema. In words: Paw edema model (inflammation-induced edema), plethysmometry. In kind it is in vivo, rat. An excerpt:
PAW EDEMA MODEL (Inflammation-induced Edema) The effects of Example 5 on carrageenan-induced edema were examined in a quantitative manner (plethysmometry).

For the molecule `CCCCOc1ccc(NC(=O)O/N=C/c2ccc(F)cc2)cc1` [Example 5, 4-Fluorobenzaldehyde, O-[[(4-butoxyphenyl)amino]carbonyl]oxime], the IC50 at human FAAH was < 10 nM. The side effects entry was “No side effects were observed” in data set [1] (40 mg/kg, i.p.); “No significant side effects were observed” in data set [2] (10 mg/kg i.v.); “strong sedation, reduced activity and splayed hindlimbs” in data set [2] (30 mg/kg i.v.). Also, the “thermal escape latencies of drug treated animals” value in data set [1] (40 mg/kg, i.p., at 2:15 hr) was “comparable to baseline”. The “development of thermal hyperalgesia” value in data set [1] (40 mg/kg, i.p., pretreatment before paw carrageenan) is “suppressed the development of thermal hyperalgesia”. Moreover, the “thermal escape responses after second injection” value in data set [1] (second injection 40 mg/kg i.p. at 3:00 hr, 3:00-4:00 hr) is listed as “maintained thermal escape responses at basal levels for another hour”. Besides, the “acute thermal pain behavior” value in data set [2] (10 & 30 mg/kg, i.v. hand infusion, 15 min post injection, did not persist beyond this time) is recorded as “significant reversal of acute thermal pain behavior”. Moreover, the “inhibition of swelling (combined total paw volume)” value is listed as “no efficacy” in data set [3] (20 mg/kg ip); 26% in data set [3] (40 mg/kg ip at -30 min and +2 hr relative to carrageenan, measured 3 hours post-injection).
Consider `CCCCOc1ccc(C(CC)NC(=O)Oc2ccc3ncccc3c2)cc1` (stereo not shown) [Example 125, [1-(4-Butoxy-phenyl)-propyl]-carbamic acid quinolin-6-yl ester], for which the melting point was in the range of 115 to 118 °C. Also, the half-inhibitory concentration (IC50) at human FAAH fell in the range of 10 to 100 nM.
In the case of `C[C@@H]1C[C@H]2[C@@H]3CCC4=CC(=O)C=C[C@]4(C)[C@@]3(F)[C@@H](O)C[C@]2(C)[C@@]1(O)C(=O)CO` [dexamethasone, reference compound], the “inhibition of swelling (combined total paw volume)” value in data set [3] (1 mg/kg ip) came to 70%.
